Legend:
[1] = molecular target: T1, Full length human TBK1 (Homo sapiens, UniProt Q9UHD2); assay: Inhibition of TBK1 Enzyme (Caliper microfluidic assay); assay type: biochemical; details: 25 μM ATP, 60 min at RT, -log(IC50), IC50 molar; for IC50: read-out: TBK1 Inhibition (pIC50) (converted)
T1 construct: Full length human TBK1 with an N-terminal His-tag; His-tag (N); made in house; host or cells: Sf9 insect cells (baculovirus, pFastBac1)
T1 sequence (Q9UHD2 1-729): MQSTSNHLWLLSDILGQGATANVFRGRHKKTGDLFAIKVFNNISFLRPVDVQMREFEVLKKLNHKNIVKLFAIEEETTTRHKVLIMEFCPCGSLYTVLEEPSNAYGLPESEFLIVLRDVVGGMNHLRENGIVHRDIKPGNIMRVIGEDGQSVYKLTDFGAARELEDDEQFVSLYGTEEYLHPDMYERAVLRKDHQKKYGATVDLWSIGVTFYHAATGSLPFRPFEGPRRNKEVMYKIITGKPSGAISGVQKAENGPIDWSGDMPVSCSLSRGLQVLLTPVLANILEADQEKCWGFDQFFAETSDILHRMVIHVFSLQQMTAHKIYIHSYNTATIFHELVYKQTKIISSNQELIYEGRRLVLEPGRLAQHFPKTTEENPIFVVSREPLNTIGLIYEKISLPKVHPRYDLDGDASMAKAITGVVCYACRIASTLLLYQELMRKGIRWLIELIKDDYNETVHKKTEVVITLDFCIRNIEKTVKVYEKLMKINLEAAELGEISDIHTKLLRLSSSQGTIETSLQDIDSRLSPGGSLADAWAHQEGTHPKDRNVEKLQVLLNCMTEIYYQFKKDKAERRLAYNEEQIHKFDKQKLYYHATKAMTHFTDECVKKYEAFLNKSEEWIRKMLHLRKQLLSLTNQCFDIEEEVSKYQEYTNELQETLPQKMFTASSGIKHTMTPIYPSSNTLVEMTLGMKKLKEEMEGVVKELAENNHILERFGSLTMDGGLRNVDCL
Outline: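 Enzyme: His-tagged full-length TBK1 expressed in Sf9. Reaction 60 min at RT in 20 mM Hepes pH 7.4, 10 mM MgCl2, 1 mM EDTA, 0.01% Brij-L23, 1 mM DTT, with 5FAM-peptide (added at 1 μM) and TBK1/ATP mix (added at 3 nM/25 μM), then EDTA-quenched. Conversion measured by microfluidic separation; 11-point 2.5-fold series fit to pIC50.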

[2] = molecular target: T2, TBK1 (Homo sapiens, UniProt Q9UHD2); assay: Inhibition of TBK1 in Cells (TLR3 driven ISRE β-lactamase reporter assay); assay type: cell-based; details: poly IC-LMW stimulation 16 hrs, -log(EC50), EC50 molar; for EC50: read-out: Inhibition of TBK1 in cells pEC50 (EC) (converted)
T2 construct: host or cells: RA1-ISRE beta-lactamase reporter cells
T2 sequence (Q9UHD2 1-729): T1 sequence (Q9UHD2 1-729)
Outline: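 RA1-ISRE β-lactamase reporter cells (50,000/well) treated with 11-point 2.5-fold compound dilutions and stimulated with 0.15 mg/ml poly IC-LMW for 16 hrs. Reporter read by CCF4-AM FRET; EC50 from non-linear fit of percent inhibition, reported as pEC50 (molar).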

[3] = test system: C57/BL6 mice; assay: Inhibition of ConA Induced Hepatitis (plasma ALT); assay type: in vivo; details: Mus musculus; oral, 1 hr before ConA 15 mg/kg i.v.; plasma collected post 8-24 hrs; read-out: ED50 (amount reducing ConA induced increase in plasma ALT level by 50%)
Method: Orally administer compound into normal C57/BL6 mice at several doses. After 1 hr, inject i.v. with ConA 15 mg/kg, (N=5). Post 8-24 hrs, collect plasma and liver. Measure plasma ALT enzyme level. An ED50 is determined as the amount of test compound that reduces ConA induced increase in plasma ALT level by 50%.

Compound: Cn1nc(-c2ccc3nc(NC(=O)C4CC4)cn3c2)cc1C(=O)NCC(F)(F)F [Example 1, 3-(2-(cyclopropanecarboxamido)imidazo[1,2-a]pyridin-6-yl)-1-methyl-N-(2,2,2-trifluoroethyl)-1H-pyrazole-5-carboxamide]
- melting point: 251 to 255 °C
- IC50 [1]: 251 nM
- EC50 [2]: 8320 nM

Compound: Cn1nc(-c2ccc3nc(NC(=O)C4CC4)cn3c2)cc1C(=O)NCC(F)F [Example 2, 3-(2-(cyclopropanecarboxamido)imidazo[1,2-a]pyridin-6-yl)-N-(2,2-difluoroethyl)-1-methyl-1H-pyrazole-5-carboxamide]
- melting point: 284 to 290 °C
- IC50 [1]: 316 nM
- EC50 [2]: 8320 nM

Compound: CC(F)(F)CNC(=O)c1cc(-c2ccc3nc(NC(=O)C4CC4)cn3c2)cs1 [Example 3, 4-(2-(cyclopropanecarboxamido)imidazo[1,2-a]pyridin-6-yl)-N-(2,2-difluoropropyl)thiophene-2-carboxamide]
- melting point: 117 to 119 °C
- IC50 [1]: 5.01 nM
- EC50 [2]: 166 nM

Compound: O=C(NCC(F)(F)F)c1nc(-c2ccc3nc(NC(=O)C4CC4)cn3c2)cs1 [Example 4, 4-(2-(cyclopropanecarboxamido)imidazo[1,2-a]pyridin-6-yl)-N-(2,2,2-trifluoroethyl)thiazole-2-carboxamide]
- melting point: 279 to 282 °C
- IC50 [1]: 5.01 nM
- EC50 [2]: 617 nM

Compound: CC(=O)Nc1cn2cc(-c3csc(C(=O)NCC(F)(F)F)c3)ccc2n1 [Example 13, 4-(2-acetamidoimidazo[1,2-a]pyridin-6-yl)-N-(2,2,2-trifluoroethyl)thiophene-2-carboxamide]
- melting point: 180 to 182 °C
- IC50 [1]: 25.1 nM
- EC50 [2]: 813 nM

Compound: COCC(=O)Nc1cn2cc(-c3csc(C(=O)NCC(F)(F)F)c3)ccc2n1 [Example 14, 4-(2-(2-methoxyacetamido)imidazo[1,2-a]pyridin-6-yl)-N-(2,2,2-trifluoroethyl)thiophene-2-carboxamide]
- melting point: 230 to 232 °C
- IC50 [1]: 39.8 nM
- EC50 [2]: 1740 nM

Compound: COCCC(=O)Nc1cn2cc(-c3csc(C(=O)NCC(F)(F)F)c3)ccc2n1 [Example 15, 4-(2-(3-methoxypropanamido)imidazo[1,2-a]pyridin-6-yl)-N-(2,2,2-trifluoroethyl)thiophene-2-carboxamide]
- melting point: 231 to 233 °C
- IC50 [1]: 25.1 nM
- EC50 [2]: 933 nM

Compound: Cc1c(-c2ccc3nc(NC(=O)C4CC4)cn3c2)n[nH]c1C(=O)NCC(F)(F)F [Example 25, 3-(2-(cyclopropanecarboxamido)imidazo[1,2-a]pyridin-6-yl)-4-methyl-N-(2,2,2-trifluoroethyl)-1H-pyrazole-5-carboxamide]
- melting point: > 275 °C
- IC50 [1]: 79.4 nM
- EC50 [2]: 3310 nM

Compound: O=C(NCC(F)F)c1nc(-c2ccc3nc(NC(=O)C4CC4)cn3c2)cs1 [Example 86, 4-(2-(cyclopropanecarboxamido)imidazo[1,2-a]pyridin-6-yl)-N-(2,2-difluoroethyl)thiazole-2-carboxamide]
- ED50 [3]: 5 mg/kg
- IC50 [1]: 15.8 nM
- EC50 [2]: 537 nM

Compound: CC1CCCN1C(=O)c1cc(-c2ccc3nc(NC(=O)C4CC4)cn3c2)n[nH]1 (stereo not drawn) [Example 123, N-(6-(5-(2-methylpyrrolidine-1-carbonyl)-1H-pyrazol-3-yl)imidazo[1,2-a]pyridin-2-yl)cyclopropanecarboxamide]
- IC50 [1]: 100 nM
- EC50 [2]: 2190 nM

Compound: O=C(Nc1cn2cc(-c3csc(C(=O)N4CC(CO)C4)n3)ccc2n1)C1CC1 [Example 124, N-(6-(2-(3-(hydroxymethyl)azetidine-1-carbonyl)thiazol-4-yl)imidazo[1,2-a]pyridin-2-yl)cyclopropanecarboxamide]
- IC50 [1]: 251 nM
- EC50 [2]: 2140 nM

Compound: N[C@@H]1CCCC(F)(F)[C@@H]1NC(=O)c1cc(-c2ccc3nc(NC(=O)C4CC4)cn3c2)cs1 [Example 125, N-((1R,6R)-6-amino-2,2-difluorocyclohexyl)-4-(2-(cyclopropanecarboxamido)imidazo[1,2-a]pyridin-6-yl)thiophene-2-carboxamide]
- IC50 [1]: 6.31 nM
- EC50 [2]: 19.1 nM

Compound: N[C@H]1CCCC(F)(F)[C@@H]1NC(=O)c1cc(-c2ccc3nc(NC(=O)C4CC4)cn3c2)cs1 [Example 126, N-((1R,6S)-6-amino-2,2-difluorocyclohexyl)-4-(2-(cyclopropanecarboxamido)imidazo[1,2-a]pyridin-6-yl)thiophene-2-carboxamide]
- IC50 [1]: 10 nM
- EC50 [2]: 55 nM

Compound: O=C(Nc1cn2cc(-n3ccc(C(=O)N(CCO)CC(F)(F)F)n3)ncc2n1)C1CC1 [Example 127, 1-(2-(cyclopropanecarboxamido)imidazo[1,2-a]pyrazin-6-yl)-N-(2-hydroxyethyl)-N-(2,2,2-trifluoroethyl)-1H-pyrazole-3-carboxamide]
- IC50 [1]: 5.01 nM
- EC50 [2]: 209 nM

Compound: (R)-4-(2-(cyclopropanecarboxamido)imidazo[1,2-a]pyrazin-6-yl)-N-(1,1,1-trifluoropropan-2-yl)thiazole-2-carboxamide [Example 7]
- TBK1 Inhibition (pIC50) [1]: 8.1
- Inhibition of TBK1 in cells pEC50 (EC) [2]: 6.41

From US9598424B2 (Takeda Pharmaceutical Company Limited, priority 2014, dated 2017)
